According to patent publication US8569000B2, “Immunoassays using antibodies specific to carbamazepine” (priority 2011, dated 2013):

Test system: antibody specific to carbamazepine
Assay: Interference from other drugs in the carbamazepine ELISA assay
Assay type: binding, rabbit
Conditions: chemical tested at 10.0 μg/ml; procedures of Example 4 (ELISA); duplicate
Text: The Carbamazepine ELISA was developed with the antibody generated from Example 3. This assay is a competitive micro-immunoassay for determination of carbamazepine in a fluid sample. Carbamazepine in the fluid sample and carbamazepine derivative linked with the enzyme (HRP)-conjugate compete for the finite sites of the antibody coated on the solid surface of the microwell. If little or no carbamazepine is present in the fluid sample, more enzyme labeled carbamazepine derivative will bind to the antibody on the solid surface. Conversely, if a large or a significant amount of carbamazepine is present in the fluid sample, less enzyme labeled carbamazepine derivative will bind to the antibody, producing less color signal. The absorbance produced is inversely proportional to the amount of carbamazepine in the fluid sample.
Interference from other drugs was tested using 30 frequently used chemicals and medicines, at concentrations of 10.0 μg/ml.
The samples were tested in duplicate, following the procedures used in Example 4. All 30 samples produced a negative test result. Thus, the immunoassay of the present disclosure is specific to carbamazepine.

| Compound | Equivalent Carbamazepine Conc. [µg/mL] |
| --- | --- |
| CN[C@@H](C)[C@H](O)c1ccccc1 [(L)-Ephedrine] | <0.1 |
| CN1C(=O)CC[C@H]1c1cccnc1 [(−)-Cotinine] | <0.1 |
| CC(=O)Oc1ccccc1C(=O)O [Acetylsalicylic Acid] | <0.1 |
| CCC1(CCC(C)C)C(=O)NC(=O)NC1=O [Amobarbital] | <0.1 |
| CC1(C)S[C@@H]2[C@H](NC(=O)[C@H](N)c3ccccc3)C(=O)N2[C@H]1C(=O)O [Ampicillin] | <0.1 |
| Cn1c(=O)c2c(ncn2C)n(C)c1=O [Caffeine] | <0.1 |
| CN(C)CCCN1c2ccccc2Sc2ccc(Cl)cc21 [Chlorpromazine] | <0.1 |
| O=C(O)C1N=C(c2ccccc2)c2cc(Cl)ccc2NC1=O (centres unmarked) [Clorazepate] | <0.1 |
| CN1C(=O)CN=C(c2ccccc2)c2cc(Cl)ccc21 [Diazepam] | <0.1 |
| COC(=O)[C@@H]1[C@H]2CC[C@@H](C[C@@H]1O)N2C [Ecgonine Methyl Ester] | <0.1 |
| CC(C(=O)O)c1cccc(Oc2ccccc2)c1 (centres unmarked) [Fenoprofen] | <0.1 |
| Cc1ccc(C)c(OCCCC(C)(C)C(=O)O)c1 [Gemfibrozil] | <0.1 |
| O=C(O)c1cc(O)ccc1O [Gentisic Acid] | <0.1 |
| COc1ccc2c3c1O[C@H]1C(=O)CC[C@H]4[C@@H](C2)N(C)CC[C@]314 [Hydrocodone] | <0.1 |
| CC(C)Cc1ccc(C(C)C(=O)O)cc1 (centres unmarked) [Ibuprofen] | <0.1 |
| CN(C)CCCN1c2ccccc2CCc2ccccc21 [Imipramine] | <0.1 |
| CCN(CC)CC(=O)Nc1c(C)cccc1C [Lidocaine] | <0.1 |
| COc1ccc2cc([C@H](C)C(=O)O)ccc2c1 [Naproxen] | <0.1 |
| NC(=O)c1cccnc1 [Niacinamide] | <0.1 |
| CNC[C@H](O)c1cccc(O)c1 [Phenylephrine] | <0.1 |
| CC(N)C(O)c1ccccc1 (centres unmarked) [Phenylpropanolamine] | <0.1 |
| CCN(CC)CCNC(=O)c1ccc(N)cc1 [Procainamide] | <0.1 |
| CCN(CC)CCOC(=O)c1ccc(N)cc1 [Procaine] | <0.1 |
| C=C[C@H]1C[N@@]2CC[C@H]1C[C@@H]2[C@@H](O)c1ccnc2ccc(OC)cc12 [Quinidine] | <0.1 |
| Cc1cc(CC(=O)O)n(C)c1C(=O)c1ccc(Cl)cc1 [Zomepirac] | <0.1 |
| NCCc1ccccc1 [beta-Phenylethylamine] | <0.1 |
| CN[C@@H](C)Cc1ccccc1 [d-Methamphetamine] | <0.1 |
| Ecgonine | <0.1 |
| Penicillin | <0.1 |
